{"source": "patent US12194081B2", "about": "“ARGINASE1 polypeptides” (IO BIOTECH APS, priority 2018, dated 2025)", "system": "PBMCs from cancer patients and healthy donors", "assay": "in vitro IFNγ ELISPOT of PBMCs after 7 days with peptide and IL-2", "type": "cell-based, human", "conditions": "for cancer patients showing responses in IFNγ ELISPOT: out of 16 cancer patients (8 melanoma, 6 multiple myeloma, 1 breast cancer, 1 renal cell carcinoma); for cancer patients showing responses in IFNγ ELISPOT / healthy donors showing responses in IFNγ ELISPOT: strong responses counted for ArgLong2, FIG. 2; for healthy donors showing responses in IFNγ ELISPOT: out of 19 healthy donors; for responses in IFNγ ELISPOT (in words): PBMCs from 6 healthy donors, peptide and low dose IL-2 for 1 week, FIG. 1", "procedure": "PBMCs from healthy donors were isolated using density gradient separation over LymphoprepTM (STEMCELL Technologies) and cryopreserved at -150° C. in FBS supplemented with 10% DMSO. PBMCs from cancer patients were isolated from blood sample a minimum of four weeks after the termination of any anti-cancer therapy. The protocol was approved by the Scientific Ethics Committee for The Capital Region of Denmark and conducted in accordance with the provisions of the Declaration of Helsinki. Written informed consent from the patients was obtained before study entry. […] The sequences of the peptides used in these experiments are shown in full below in alignment with each other, and are also set out in the section entitled “Sequences”). Peptides are described by SEQ ID NO, by name, or by reference to the start and end positions of each peptide sequence within the full length sequence of Arginase 1. Each may be used interchangeably. For example, the peptide of SEQ ID NO: 1 may alternatively be referred to by the name ArgLong2, or may alternatively be referred to as […]-206 (given a start position of 169 and end position of 206). The intended reference in each case will be clear from the context. For in vitro ELISPOT, PBMCs from cancer patients and healthy donors were pulsed with 20 μM of Arginase 1-derived peptides and 120 U/ml IL-2 in 24-well plates for 7 days before being used in an ELISPOT assay. The cells were placed in 96-well nitrocellulose ELISPOT plates (MultiScreen MAIP […]; Millipore) pre-coated with IFNγ capture antibody (Mabtech). Arginase peptides added to a final concentration of 5 μM and plates incubated at 37° C. for 14-16 hours. After the incubation the cells were washed off and secondary biotinylated Ab (Mabtech, cat. 3420-6-1000) was added for 2 hours at room temperature. Unbound secondary antibody was washed off and streptavidin conjugated alkaline phosphatase (AP) (Mabtech, cat. 3310-10) was added for 1 hour at room temperature. Unbound conjugated enzyme was washed off and the assay was developed by adding BCIP/NBT substrate (Mabtech, cat. 3650-10). Developed ELISPOT plates were analyzed on CTL ImmunoSpot S6 Ultimate-V analyzer using Immunospot software v5.1. Responses were reported as the difference between average numbers of spots in wells stimulated with Arginase 1 and wells without added peptide.", "data": [{"sequence": "AKDIVYIGLRDVDPGEHYIL (Peptide fragment of human Arginase 1 (Arg1-18)) [Arg171-190, previously described 20-mer Arginase 1 peptide (WO2018065563), reference compound]", "values": [{"measurement": "cancer patients showing responses in IFNγ ELISPOT", "result": 3, "unit": "cancer patients"}, {"measurement": "healthy donors showing responses in IFNγ ELISPOT", "result": 3, "unit": "healthy donors"}]}, {"sequence": "DVDPGEHYILKTLGIKYFSM (Peptide fragment of human Arginase 1 (Arg1-19)) [Arg181-200, previously described 20-mer Arginase 1 peptide (WO2018065563), reference compound]", "values": [{"measurement": "cancer patients showing responses in IFNγ ELISPOT", "result": 6, "unit": "cancer patients"}, {"measurement": "healthy donors showing responses in IFNγ ELISPOT", "result": 4, "unit": "healthy donors"}]}, {"sequence": "ISAKDIVYIGLRDVDPGEHYILKTLGIKYFSM (Peptide fragment of human Arginase 1 (ArgLong3)) [32-mer, positions 169-200 of full length human Arginase 1]", "values": [{"measurement": "responses in IFNγ ELISPOT (in words)", "result": "low or no responses"}]}, {"sequence": "ISAKDIVYIGLRDVDPGEHYILKTLGIKYFSMTEVDRLGIGK (Peptide fragment of human Arginase 1 (ArgLong)) [42-mer, positions 169-210 of full length human Arginase 1]", "values": [{"measurement": "responses in IFNγ ELISPOT (in words)", "result": "low or no responses"}]}, {"sequence": "KTLGIKYFSMTEVDRLGIGK (Peptide fragment of human Arginase 1 (Arg1-20)) [Arg191-210, previously described 20-mer Arginase 1 peptide (WO2018065563), reference compound]", "values": [{"measurement": "cancer patients showing responses in IFNγ ELISPOT", "result": 3, "unit": "cancer patients"}, {"measurement": "healthy donors showing responses in IFNγ ELISPOT", "result": 7, "unit": "healthy donors"}]}]}
